{"source": "patent US20050112573A1", "about": "“Method of detecting toxic substance” (priority 2001, published 2005)", "system": "yeast genes (level of expressed mRNA)", "test": "DNA chip analysis of expressed mRNA of yeast genes after 2 h culture with a toxic chemical substance", "type": "cell-based, Saccharomyces cerevisiae S288C", "protocol": "Yeast (Saccharomyces cerevtisiae S288C (α SUC2mal mel gap2 CUP1)) were cultured at 25° C. on YPD medium (yeast extract 1%, polypepton 2%, glucose 2%). One of toxic chemical substances was added to the cell at logarithmic growth phase, and the cell was further cultured for two hours. Cell was cultured without any chemical substance in the same condition, and was used as control. Concentrations of the chemical substances were defined to inhibit the growth of the yeast but not lead to death.\nAfter the completion of cultivation, the culture was centrifuged to collect the cells. To the cells, sodium acetate buffer (50 mM sodium acetate, 10 mM EDTA, 1% SDS) was added, and the mixture was shaken at 65° C. for five minutes, followed by returning to room temperature, and obtaining the supernatant, which procedure was repeated two times. To the supernatant, ½ amount of a solution of phenol/chloroform was added, and the mixture was centrifuged to give a supernatant, which was added with an equal amount of chloroform, and the mixture was centrifuged to give a supernatant. To the supernatant, an equal amount of isopropanol containing 0.3 M sodium acetate was added, and the mixture was allowed to stand at room temperature for 30 minutes, after which the mixture was centrifuged to give a sediment of the whole RNAs. Seventy % ethanol was added to the sediment, and the mixture was again centrifuged to give a sediment, which was then dried and dissolved in water. mRNA was isolated from the whole RNAs as followings. In view of the fact that a poly A chain is attached to the 3′ terminus of mRNA, a polynucleotide having a poly T structure which was immobilized on the surface of latex beads was used to trap the mRNA, and then the mRNA was washed and eluted with spine column (Oligotex-dT30<Super>mRNA Purification Kit, Takara). Reverse transcription of the mRNA was conducted with a reverse transcriptase (Super Script II Reverse Transcriptase; catalogue No. 18064-014, GibcoBRL) using fluorescence-labeled nucleotides to give cDNAs that were introduced with Cy3-dUTP or Cy5-dUTP during the reverse transcription.\nThe labeled cDNAs were dissolved in TE buffer (10 mM Tris-HCl/1 mM EDTA, pH8.0), and the solution was dropped on the DNA chip containing the whole genes of yeast (DNA Chip Research Inc. Japan) so that the cDNAs were hybridized on the DNA chip at 65° C. for over 12 hours. The fluoresces intensity of the DNA chip was read with a scanner, and the ratio relative to the fluorescence intensity resulting from the absence of chemical substance was estimated as the following, which is shown in Tables 1 to 9: [formula]\nIn the Tables, “Intensity” indicated in the rightmost column is a value of the level of expressed mRNA of each gene in control cells as divided by the average level of the expressions of the whole genes."}
{"smiles": "COc1cc(CNC(=O)CCCCC=CC(C)C)ccc1O", "note": "[(12), 8-methyl-N-vanillyl-6-nonenamide]", "values": [{"measurement": "The level of expressed mRNA in the presence of chemical substance/absence: YHL006C", "setting": "gene YHL006C", "result": 1.0}, {"measurement": "The level of expressed mRNA in the presence of chemical substance/absence: YHL021C", "setting": "gene YHL021C", "result": 1.1}, {"measurement": "The level of expressed mRNA in the presence of chemical substance/absence: YHL037C", "setting": "gene YHL037C", "result": 0.6}, {"measurement": "level of expressed mRNA in the presence of chemical substance/in its absence", "setting": "gene YHR037W", "result": 1.1}, {"measurement": "The level of expressed mRNA in the presence of chemical substance/absence: YHR083W", "setting": "gene YHR083W", "result": 0.9}, {"measurement": "level of expressed mRNA in the presence of chemical substance/in its absence", "setting": "gene YHR092C", "result": 1.0}, {"measurement": "The level of expressed mRNA in the presence of chemical substance/absence: YHR095W", "setting": "gene YHR095W", "result": 0.6}, {"measurement": "The level of expressed mRNA in the presence of chemical substance/absence: YHR105W", "setting": "gene YHR105W", "result": 0.7}, {"measurement": "The level of expressed mRNA in the presence of chemical substance/absence: YHR134W", "setting": "gene YHR134W", "result": 1.0}, {"measurement": "level of expressed mRNA in the presence of chemical substance/in its absence", "setting": "gene YHR137W", "result": 0.6}, {"measurement": "The level of expressed mRNA in the presence of chemical substance/absence: YHR180W", "setting": "gene YHR180W", "result": 0.7}, {"measurement": "The level of expressed mRNA in the presence of chemical substance/absence: YHR181W", "setting": "gene YHR181W", "result": 0.8}, {"measurement": "level of expressed mRNA in the presence of chemical substance/in its absence", "setting": "gene YHR190W", "result": 1.1}, {"measurement": "level of expressed mRNA in the presence of chemical substance/in its absence", "setting": "gene YIL033C", "result": 1.1}, {"measurement": "The level of expressed mRNA in the presence of chemical substance/absence: YIL108W", "setting": "gene YIL108W", "result": 0.7}, {"measurement": "The level of expressed mRNA in the presence of chemical substance/absence: YIL127C", "setting": "gene YIL127C", "result": 0.7}, {"measurement": "level of expressed mRNA in the presence of chemical substance/in its absence", "setting": "gene YIL154C", "result": 1.1}, {"measurement": "The level of expressed mRNA in the presence of chemical substance/absence: YIL165C", "setting": "gene YIL165C", "result": 0.9}, {"measurement": "level of expressed mRNA in the presence of chemical substance/in its absence", "setting": "gene YIL167W", "result": 0.7}, {"measurement": "level of expressed mRNA in the presence of chemical substance/in its absence", "setting": "gene YIR035C", "result": 0.9}, {"measurement": "The level of expressed mRNA in the presence of chemical substance/absence: YJL017W", "setting": "gene YJL017W", "result": 1.3}, {"measurement": "The level of expressed mRNA in the presence of chemical substance/absence: YJL032W", "setting": "gene YJL032W", "result": 0.5}, {"measurement": "The level of expressed mRNA in the presence of chemical substance/absence: YJL037W", "setting": "gene YJL037W", "result": 0.8}, {"measurement": "The level of expressed mRNA in the presence of chemical substance/absence: YJL049W", "setting": "gene YJL049W", "result": 0.8}, {"measurement": "level of expressed mRNA in the presence of chemical substance/in its absence", "setting": "gene YJL088W", "result": 0.7}, {"measurement": "The level of expressed mRNA in the presence of chemical substance/absence: YJL097W", "setting": "gene YJL097W", "result": 1.0}, {"measurement": "level of expressed mRNA in the presence of chemical substance/in its absence", "setting": "gene YJL132W", "result": 1.0}, {"measurement": "level of expressed mRNA in the presence of chemical substance/in its absence", "setting": "gene YJL196C", "result": 1.1}, {"measurement": "The level of expressed mRNA in the presence of chemical substance/absence: YJR030C", "setting": "gene YJR030C", "result": 0.9}, {"measurement": "The level of expressed mRNA in the presence of chemical substance/absence: YJR044C", "setting": "gene YJR044C", "result": 0.7}, {"measurement": "level of expressed mRNA in the presence of chemical substance/in its absence", "setting": "gene YJR142W", "result": 0.8}, {"measurement": "level of expressed mRNA in the presence of chemical substance/in its absence", "setting": "gene YJR148W", "result": 0.8}, {"measurement": "level of expressed mRNA in the presence of chemical substance/in its absence", "setting": "gene YJR159W", "result": 1.5}, {"measurement": "The level of expressed mRNA in the presence of chemical substance/absence: YKL051W", "setting": "gene YKL051W", "result": 0.8}, {"measurement": "The level of expressed mRNA in the presence of chemical substance/absence: YKL059C", "setting": "gene YKL059C", "result": 0.9}, {"measurement": "level of expressed mRNA in the presence of chemical substance/in its absence", "setting": "gene YKL067W", "result": 0.9}, {"measurement": "The level of expressed mRNA in the presence of chemical substance/absence: YKL090W", "setting": "gene YKL090W", "result": 0.6}, {"measurement": "The level of expressed mRNA in the presence of chemical substance/absence: YKL094W", "setting": "gene YKL094W", "result": 0.9}, {"measurement": "The level of expressed mRNA in the presence of chemical substance/absence: YKL097C", "setting": "gene YKL097C", "result": 0.6}, {"measurement": "The level of expressed mRNA in the presence of chemical substance/absence: YKL100C", "setting": "gene YKL100C", "result": 0.9}, {"measurement": "level of expressed mRNA in the presence of chemical substance/in its absence", "setting": "gene YKR039W", "result": 1.5}, {"measurement": "The level of expressed mRNA in the presence of chemical substance/absence: YKR040C", "setting": "gene YKR040C", "result": 0.8}, {"measurement": "The level of expressed mRNA in the presence of chemical substance/absence: YLR097C", "setting": "gene YLR097C", "result": 0.8}, {"measurement": "level of expressed mRNA in the presence of chemical substance/in its absence", "setting": "gene YLR142W", "result": 0.8}, {"measurement": "level of expressed mRNA in the presence of chemical substance/in its absence", "setting": "gene YLR180W", "result": 0.6}, {"measurement": "The level of expressed mRNA in the presence of chemical substance/absence: YLR226W", "setting": "gene YLR226W", "result": 0.7}, {"measurement": "level of expressed mRNA in the presence of chemical substance/in its absence", "setting": "gene YLR273C", "result": 0.9}, {"measurement": "level of expressed mRNA in the presence of chemical substance/in its absence", "setting": "gene YLR300W", "result": 0.5}, {"measurement": "level of expressed mRNA in the presence of chemical substance/in its absence", "setting": "gene YLR307W", "result": 0.7}, {"measurement": "The level of expressed mRNA in the presence of chemical substance/absence: YLR338W", "setting": "gene YLR338W", "result": 0.6}, {"measurement": "The level of expressed mRNA in the presence of chemical substance/absence: YLR339C", "setting": "gene YLR339C", "result": 0.6}, {"measurement": "The level of expressed mRNA in the presence of chemical substance/absence: YLR392C", "setting": "gene YLR392C", "result": 0.6}, {"measurement": "The level of expressed mRNA in the presence of chemical substance/absence: YLR415C", "setting": "gene YLR415C", "result": 0.8}, {"measurement": "The level of expressed mRNA in the presence of chemical substance/absence: YLR427W", "setting": "gene YLR427W", "result": 0.9}, {"measurement": "The level of expressed mRNA in the presence of chemical substance/absence: YML013W", "setting": "gene YML013W", "result": 0.9}, {"measurement": "The level of expressed mRNA in the presence of chemical substance/absence: YML029W", "setting": "gene YML029W", "result": 1.1}, {"measurement": "The level of expressed mRNA in the presence of chemical substance/absence: YML041C", "setting": "gene YML041C", "result": 0.8}, {"measurement": "The level of expressed mRNA in the presence of chemical substance/absence: YML079W", "setting": "gene YML079W", "result": 1.1}]}
